Laboratory results published in patent US8247211B2, “Glycopeptide antibiotics” (American Cyanamid Company, priority 2001, dated 2012).
Converted amounts (≈) assume the structure as drawn.

Tests used:
Assay in all cases: In vitro antibacterial evaluation: minimum inhibitory concentration (MIC), broth dilution method
Type in all cases: cell-based
[1] = system: Escherichia coli; conditions: broth dilution, 18 hours at 35° C.
[2] = system: Staphylococcus sp.; conditions: strain SMITH GC 4543; broth dilution, 18 hours at 35° C.
Outline: (§1)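 NCCLS M7-A2 broth dilution with Mueller-Hinton II, testing 64-0.06 μg/mL antibiotic against 5×10^5 CFU/mL inocula. Test strains include recent methicillin-, penicillin- or vancomycin-resistant clinical isolates. MIC is the lowest concentration preventing growth.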

[3] = system: Streptococcus sp.; conditions: broth dilution, 18 hours at 35° C.
Outline: as §1

[4] = system: Enterococcus sp.; conditions: broth dilution, 18 hours at 35° C.
Outline: as §1

[5] = Streptococcus agalactiae (GC 4564)
[6] = Streptococcus pneumoniae (ATCC 6301)
[7] = Streptococcus pneumoniae (GC 1894)
[8] = Streptococcus pneumoniae (GC 4565)
[9] = Streptococcus pyogenes (GC 4563)
[10] = Enterococcus faecalis (ATCC 29212)
[11] = Enterococcus faecalis (GC 2242)
[12] = Enterococcus faecalis (GC 2691)
[13] = Enterococcus faecalis (GC 3059)
[14] = Enterococcus faecalis (GC 4552)
[15] = Enterococcus faecalis (GC 4553)
[16] = Enterococcus faecalis (GC 4554)
[17] = Enterococcus faecalis (GC 6189)

| Compound | MIC Escherichia coli (ATCC 25922) [1] [µg/mL] | MIC Escherichia coli (GC 4559) [1] [µg/mL] | MIC Escherichia coli (GC 4560) [1] [µg/mL] | MIC Staphylococcus aureus-SMITH (GC 4543) [2] [µg/mL] | MIC Streptococcus agalactiae (GC 4564) [3, 5] [µg/mL] | MIC Streptococcus pneumoniae (ATCC 6301) [3, 6] [µg/mL] | MIC Streptococcus pneumoniae (GC 1894) [3, 7] [µg/mL] | MIC Streptococcus pneumoniae (GC 4565) [3, 8] [µg/mL] | MIC Streptococcus pyogenes (GC 4563) [3, 9] [µg/mL] | MIC Streptococcus agalactiae (GC 4564) [3] [µg/mL] | MIC Streptococcus pneumoniae (ATCC 6301) [3] [µg/mL] | MIC Streptococcus pneumoniae (GC 1894) [3] [µg/mL] | MIC Streptococcus pneumoniae (GC 4565) [3] [µg/mL] | MIC Streptococcus pyogenes (GC 4563) [3] [µg/mL] | MIC Enterococcus avium (GC 4558) ([4]; Enterococcus avium (GC 4558)) [µg/mL] | MIC Enterococcus faecalis (ATCC 29212) [4, 10] [µg/mL] | MIC Enterococcus faecalis (GC 2242) [4, 11] [µg/mL] | MIC Enterococcus faecalis (GC 2691) [4, 12] [µg/mL] | MIC Enterococcus faecalis (GC 3059) [4, 13] [µg/mL] | MIC Enterococcus faecalis (GC 4552) [4, 14] [µg/mL] | also measured |
| --- | --- | --- | --- | --- | --- | --- | --- | --- | --- | --- | --- | --- | --- | --- | --- | --- | --- | --- | --- | --- | --- |
| CC(c1ccccc1)C1NC(=O)CNC(=O)C(CO)NC(=O)C(C(O)C2CNC(=N)N2C2OC(CO)C(O)C(O)C2O)NC(=O)C(C(O)C2CNC(=N)N2)NC(=O)C(Cc2ccc(O)c(NC(=S)Nc3cc(C(F)(F)F)cc(C(F)(F)F)c3)c2)NC1=O (stereo not drawn) [Example 24, Cyclo[glycyl-β-methylphenylalanyl-3-[[[3,5-bis(trifluoromethyl)phenyl]carbamothioyl]amino]-tyrosyl-3-(2-iminoimidazolidin-4-yl)seryl-3-(3-hexopyranosyl-2-iminoimidazolidin-4-yl)-serylseryl]] | >64 | >64 | 32 (≈ 25.5 µM) | >64 | >64 | >64 | 64 (≈ 50.9 µM) | >64 | 64 (≈ 50.9 µM) | >64 | >64 | 64 (≈ 50.9 µM) | >64 | 64 (≈ 50.9 µM) | 64 (≈ 50.9 µM) | 64 (≈ 50.9 µM) | 64 (≈ 50.9 µM) | >64 | >64 | >64 | MIC Enterococcus faecalis (GC 4553) [4, 15]: 32 µg/mL (≈ 25.5 µM); MIC Enterococcus faecalis (GC 4554) [4, 16]: >64 µg/mL; MIC Enterococcus faecalis (GC 6189) [4, 17]: >64 µg/mL; MIC Enterococcus faecium (GC 2243) ([4]; Enterococcus faecium (GC 2243)): 64 µg/mL (≈ 50.9 µM); MIC Enterococcus faecium (GC 4556) ([4]; Enterococcus faecium (GC 4556)): 64 µg/mL (≈ 50.9 µM); MIC Enterococcus faecium (GC 4557) ([4]; Enterococcus faecium (GC 4557)): 32 µg/mL (≈ 25.5 µM); MIC Enterococcus avium (GC 4558) [4]: 64 µg/mL (≈ 50.9 µM); MIC Enterococcus faecalis (ATCC 29212) [4]: 64 µg/mL (≈ 50.9 µM); MIC Enterococcus faecalis (GC 2242) [4]: 64 µg/mL (≈ 50.9 µM); MIC Enterococcus faecalis (GC 2691) [4]: >64 µg/mL; MIC Enterococcus faecalis (GC 3059) [4]: >64 µg/mL; MIC Enterococcus faecalis (GC 4552) [4]: >64 µg/mL; MIC Enterococcus faecalis (GC 4553) [4]: 32 µg/mL (≈ 25.5 µM); MIC Enterococcus faecalis (GC 4554) [4]: >64 µg/mL; MIC Enterococcus faecalis (GC 6189) [4]: >64 µg/mL; MIC Enterococcus faecium (GC 2243) [4]: 64 µg/mL (≈ 50.9 µM); MIC Enterococcus faecium (GC 4556) [4]: 64 µg/mL (≈ 50.9 µM); MIC Enterococcus faecium (GC 4557) [4]: 32 µg/mL (≈ 25.5 µM) |
| CC(c1ccccc1)C1NC(=O)CNC(=O)C(CO)NC(=O)C(C(O)C2CNC(=N)N2C2OC(CO)C(O)C(O)C2O)NC(=O)C(C(O)C2CNC(=N)N2)NC(=O)C(Cc2ccc3oc(-c4cccc([N+](=O)[O-])c4)nc3c2)NC1=O (stereo not drawn) [Example 26, Cyclo[3-[2-(3-nitrophenyl)-1,3-benzoxazol-5-yl)alanyl-3-(2-iminoimidazolidin-4-yl)seryl-3-(3-hexopyranosyl-2-iminoimidazolidin-4-yl)serylserylglycyl-β-methylphenylalanyl]] | 64 (≈ 57.3 µM) | 64 (≈ 57.3 µM) | 16 (≈ 14.3 µM) | 16 (≈ 14.3 µM) | 16 (≈ 14.3 µM) | 32 (≈ 28.6 µM) | 16 (≈ 14.3 µM) | 32 (≈ 28.6 µM) | 8 (≈ 7.16 µM) | 16 (≈ 14.3 µM) | 32 (≈ 28.6 µM) | 16 (≈ 14.3 µM) | 32 (≈ 28.6 µM) | 8 (≈ 7.16 µM) | 32 (≈ 28.6 µM) | 32 (≈ 28.6 µM) | 64 (≈ 57.3 µM) | 32 (≈ 28.6 µM) | 64 (≈ 57.3 µM) | 64 (≈ 57.3 µM) | MIC Enterococcus faecalis (GC 4553) [4, 15]: 32 µg/mL (≈ 28.6 µM); MIC Enterococcus faecalis (GC 4554) [4, 16]: 64 µg/mL (≈ 57.3 µM); MIC Enterococcus faecalis (GC 6189) [4, 17]: 32 µg/mL (≈ 28.6 µM); MIC Enterococcus faecium (GC 2243) ([4]; Enterococcus faecium (GC 2243)): 32 µg/mL (≈ 28.6 µM); MIC Enterococcus faecium (GC 4556) ([4]; Enterococcus faecium (GC 4556)): 64 µg/mL (≈ 57.3 µM); MIC Enterococcus faecium (GC 4557) ([4]; Enterococcus faecium (GC 4557)): 8 µg/mL (≈ 7.16 µM); MIC Enterococcus avium (GC 4558) [4]: 32 µg/mL (≈ 28.6 µM); MIC Enterococcus faecalis (ATCC 29212) [4]: 32 µg/mL (≈ 28.6 µM); MIC Enterococcus faecalis (GC 2242) [4]: 64 µg/mL (≈ 57.3 µM); MIC Enterococcus faecalis (GC 2691) [4]: 32 µg/mL (≈ 28.6 µM); MIC Enterococcus faecalis (GC 3059) [4]: 64 µg/mL (≈ 57.3 µM); MIC Enterococcus faecalis (GC 4552) [4]: 64 µg/mL (≈ 57.3 µM); MIC Enterococcus faecalis (GC 4553) [4]: 32 µg/mL (≈ 28.6 µM); MIC Enterococcus faecalis (GC 4554) [4]: 64 µg/mL (≈ 57.3 µM); MIC Enterococcus faecalis (GC 6189) [4]: 32 µg/mL (≈ 28.6 µM); MIC Enterococcus faecium (GC 2243) [4]: 32 µg/mL (≈ 28.6 µM); MIC Enterococcus faecium (GC 4556) [4]: 64 µg/mL (≈ 57.3 µM); MIC Enterococcus faecium (GC 4557) [4]: 8 µg/mL (≈ 7.16 µM) |
